Test results reported in ChEMBL document CHEMBL1133482, “1-Phenyl-5-pyrazolyl ureas: potent and selective p38 kinase inhibitors” (Bioorg Med Chem Lett, 2000).
In brackets after ≈: the same amount, converted by molar mass.

Assay: Aqueous solubility at pH 7.5
Format: physicochemical

Row | solubility [µg/mL] | SMILES
1 | 594 (≈ 1420 µM) | CC(C)(C)c1cc(NC(=O)Nc2cccc(Cl)c2Cl)n(-c2cccc(N)c2)n1
2 | 17 (≈ 40.4 µM) | CC(C)(C)c1cc(NC(=O)Nc2cccc(Cl)c2Cl)n(-c2cccc(F)c2)n1
3 | 24 (≈ 59.5 µM) | CC(C)(C)c1cc(NC(=O)Nc2cccc(Cl)c2Cl)n(-c2ccccc2)n1

Continued, molecule first:

Row | SMILES | solubility [µg/mL]
4 | CC(C)(C)c1cc(NC(=O)Nc2cccc(Cl)c2Cl)n(-c2ccc([N+](=O)[O-])cc2)n1 | 66 (≈ 147 µM)
5 | COc1cccc(-n2nc(C(C)(C)C)cc2NC(=O)Nc2cccc(Cl)c2Cl)c1 | 46 (≈ 106 µM)
6 | CC(C)(C)c1cc(NC(=O)Nc2cccc(Cl)c2Cl)n(-c2ccc(S(C)(=O)=O)cc2)n1 | 79 (≈ 164 µM)
7 | CC(C)(C)c1cc(NC(=O)Nc2cccc(Cl)c2Cl)n(-c2cccc([N+](=O)[O-])c2)n1 | 18 (≈ 40.2 µM)
